The source made the active and inactive calls. No cut-off for these calls is given here.
Assays:
Leishmania donovani [1] = assay: Antileishmanial activity against Leishmania donovani MHOM/IN/80/Dd8 amastigotes harboring luciferase reporter gene infected in mouse J774 cells at 100 uM after 72 hrs by Steady-Glo luminescence assay relative to control; assay type: functional; settings: MHOM/IN/80/Dd8, J774, 72 h
[2] = Cytotoxicity against African green monkey Vero cells assessed as cell viability at 50 uM by MTT assay relative to control; assay type: cell-based; settings: chlorocebus sabaeus, read-out: Activity
[3] = Cytotoxicity against African green monkey Vero cells assessed as cell viability at 25 uM by MTT assay relative to control; assay type: cell-based; settings: chlorocebus sabaeus, read-out: Activity
Leishmania donovani [4] = assay: Antileishmanial activity against Leishmania donovani MHOM/IN/80/Dd8 amastigotes harboring luciferase reporter gene infected in mouse J774 cells at 50 uM after 72 hrs by Steady-Glo luminescence assay relative to control; assay type: functional; settings: MHOM/IN/80/Dd8, J774, 72 h
Leishmania donovani [5] = assay: Antileishmanial activity against promastigote stage of Leishmania donovani MHOM/IN/80/Dd8 harboring luciferase reporter gene at 25 uM after 48 hrs by Steady-Glo luminescence assay relative to control; assay type: functional; settings: for inhibition at 25 µM: MHOM/IN/80/Dd8, 48 h
Leishmania donovani [6] = assay: Antileishmanial activity against Leishmania donovani MHOM/IN/80/Dd8 amastigotes harboring luciferase reporter gene infected in mouse J774 cells at 25 uM after 72 hrs by Steady-Glo luminescence assay relative to control; assay type: functional; settings: for inhibition at 25 µM: MHOM/IN/80/Dd8, J774, 72 h
Leishmania donovani [7] = assay: Antileishmanial activity against promastigote stage of Leishmania donovani MHOM/IN/80/Dd8 harboring luciferase reporter gene at 100 uM after 48 hrs by Steady-Glo luminescence assay relative to control; assay type: functional; settings: MHOM/IN/80/Dd8, 48 h
Leishmania donovani [8] = assay: Antileishmanial activity against promastigote stage of Leishmania donovani MHOM/IN/80/Dd8 harboring luciferase reporter gene at 50 uM after 48 hrs by Steady-Glo luminescence assay relative to control; assay type: functional; settings: for inhibition at 50 µM: MHOM/IN/80/Dd8, 48 h
[9] = Cytotoxicity against African green monkey Vero cells assessed as cell viability at 100 uM by MTT assay relative to control; assay type: cell-based; settings: chlorocebus sabaeus, read-out: Activity
Leishmania donovani [10] = assay: Induction of mitochondrial dysfunction in Leishmania donovani promastigotes assessed as reduction in mitochondrial membrane potential at 50 uM after 15 mins by JC-1 staining-based flow cytometric analysis (reference value: 7.73%); assay type: functional; parameters: scale not given: the % may be the effect or the level left
[11] = Half life in mouse liver microsomes after 1 hr in presence of NADPH by UPLC analysis; assay type: ADME, Microsome
[12] = Stability in simulated gastric fluid at 10 ug/ml measured after 2 hrs by UPLC analysis relative to control; assay type: ADME; settings: read-out: Stability
[13] = Stability in mouse liver microsomes assessed as compound remaining after 1 hr in presence of NADPH by UPLC analysis; assay type: ADME, Microsome; settings: read-out: Stability
[14] = Stability in simulated intestinal fluid at 10 ug/ml measured after 2 hrs by UPLC analysis relative to control; assay type: ADME; settings: read-out: Stability
[15] = Intrinsic clearance in mouse liver microsomes after 1 hr in presence of NADPH by UPLC analysis; assay type: ADME, Microsome
[16] = Stability in mouse plasma at 10 ug/ml measured after 2 hrs by UPLC analysis relative to control; assay type: ADME, cell-free; settings: read-out: Stability
[17] = Selectivity index, ratio of CC50 for mouse J774 cells to IC50 for antileishmanial activity against Leishmania donovani MHOM/IN/80/Dd8 amastigotes harboring luciferase reporter gene; assay type: toxicity; settings: read-out: Ratio CC50/IC50
[18] = Selectivity index, ratio of CC50 for African green monkey Vero cells to IC50 for antileishmanial activity against Leishmania donovani MHOM/IN/80/Dd8 amastigotes harboring luciferase reporter gene; assay type: toxicity; settings: read-out: Ratio CC50/IC50
Leishmania donovani [19] = assay: Inhibition of succinate-ubiquinone oxidoreductase in Leishmania donovani promastigotes mitochondria using succinate as substrate in presence fo DCPIP by photometry analysis relative to control; settings: concentration not given here
Leishmania donovani [20] = assay: Inhibition of ubiquinol cytochrome c reductase in Leishmania donovani promastigotes mitochondria at 2 uM using decylubiquinol as substrate in presence of cytochrome c relative to control

| Compound | inhibition at 100 µM (Leishmania donovani [1]) [%] | viability at 50 µM [2] [%] | viability at 25 µM [3] [%] | inhibition at 50 µM (Leishmania donovani [4]) [%] | inhibition at 25 µM (Leishmania donovani [6]) [%] | inhibition at 100 µM (Leishmania donovani [7]) [%] | viability at 100 µM [9] [%] | inhibition at 25 µM (Leishmania donovani [5]) [%] | inhibition at 50 µM (Leishmania donovani [8]) [%] | also measured |
| --- | --- | --- | --- | --- | --- | --- | --- | --- | --- | --- |
| CSc1ccc(C(=O)C(c2ccc(Cl)c(Cl)c2)C(NC(=O)c2ccc(C)cc2)c2cccc3ccccc23)cc1 (stereo not given) | 25.9 | 89.6 | 90.5 | 23.8 | 14.3 | 12.5 | 88.6 | – | – | inhibition (Leishmania donovani [5]): inactive; inhibition (Leishmania donovani [8]): inactive |
| CCOC(=O)C(C(=O)c1ccc(OC)cc1)C(NC(C)=O)c1ccc(C(C)(C)C)cc1 (stereo not given) | 53.1 | 92.3 | 94.5 | 46.1 | 40.5 | 54.3 | 89.5 | 40.2 | 52.4 | – |
| CSc1ccc(C(=O)/C(=C/c2cccnc2)c2ccc(Cl)c(Cl)c2)cc1 | 62.1 | 89.6 | 95.7 | 59.3 | 34.3 | 83.2 | 88.6 | 46.7 | 80.4 | – |
| CSc1ccc(C(=O)/C(=C/c2ccccn2)c2ccc(Cl)c(Cl)c2)cc1 | 38.5 | 93.6 | 97.9 | 36.2 | 17.5 | 76.6 | 89.6 | 53.4 | 74.6 | – |
| CSc1ccc(C(=O)/C(=C/c2cc3ccccc3s2)c2ccc(Cl)c(Cl)c2)cc1 | 2.8 | 91.6 | 93.4 | 2.6 | – | 72.1 | 87 | 62.1 | 70.3 | inhibition (Leishmania donovani [6]): inactive |
| CCOC(=O)C(C(=O)c1ccc(OC)cc1)C(NC(C)=O)c1ccc(C(C)C)cc1 (stereo not given) | 55.3 | 96.5 | 98.8 | 44.4 | 29.4 | 34 | 90.4 | 30.8 | 33.5 | – |
| N#CC(C#N)=NNc1cccc(Cl)c1 [CARBONYL CYANIDE M-CHLOROPHENYLHYDRAZONE] | – | – | – | – | – | – | – | – | – | Activity (Leishmania donovani [10]): 94.26% |
| CCOC(=O)C(C(=O)c1ccc(OC)cc1)C(NC(C)=O)c1cc(OC)c(OC)c(OC)c1 (stereo not given) | 51.3 | 94.3 | 97.8 | 51.1 | 25.4 | 43.1 | 88.9 | 28.3 | 40.2 | – |
| CCOC(=O)C(C(=O)c1ccc(OC)cc1)C(NC(C)=O)c1cc(OC)ccc1Br (stereo not given) | 64.2 | 93.3 | 96.3 | 62.3 | 58.2 | 81.2 | 90.7 | 68 | 80.3 | half-life [11]: 1.55 h; remaining at 2 h, 10 ug/ml [12]: 71.1%; remaining at 1 h [13]: 57.8%; remaining at 2 h, 10 ug/ml [14]: 69.6%; CLH [15]: 5 µL/min/mg; remaining at 2 h, 10 ug/ml [16]: 6.97% |
| CSc1ccc(C(=O)C(c2ccc(Cl)c(Cl)c2)C(NC(=O)c2cccc(C)c2)c2cccc3ccccc23)cc1 (stereo not given) | 19.3 | 90.7 | 95.8 | 14.5 | 5.9 | 36.9 | 87.6 | 27.2 | 36.4 | – |
| CCCCCCCCCCCCCCCCOP(=O)([O-])OCC[N+](C)(C)C [MILTEFOSINE] | – | – | – | – | – | – | – | – | – | selectivity ratio [17]: 5.8; selectivity ratio [18]: 5.3 |
| CSc1ccc(C(=O)C(c2ccc(Cl)c(Cl)c2)C(NC(=O)c2cccc(C)c2)c2cc3ccccc3s2)cc1 (stereo not given) | 27.2 | 90.6 | 92.1 | 21.9 | 12 | 35.1 | 87.3 | 24.3 | 30.4 | – |
| CSc1ccc(C(=O)C(c2ccc(Cl)c(Cl)c2)C(NC(=O)c2ccccc2)c2cc3ccccc3s2)cc1 (stereo not given) | 18.3 | 92.4 | 97.2 | 16.5 | 11.8 | 33.2 | 88 | 22.4 | 30.5 | – |
| CSc1ccc(C(=O)C(c2ccc(Cl)c(Cl)c2)C(NC(=O)c2ccccc2)c2cccc3ccccc23)cc1 (stereo not given) | 72.3 | 93.9 | 98.2 | 69.4 | 43.1 | 45.6 | 89.2 | 33.4 | 42.1 | – |
| CSc1ccc(C(=O)C(c2ccc(Cl)c(Cl)c2)C(NC(=O)c2ccc(Br)cc2)c2cccc3ccccc23)cc1 (stereo not given) | 39.2 | 90.2 | 92.8 | 38.3 | 21.2 | 77.2 | 88.5 | 56.3 | 74.9 | – |
| O=C(CC(=O)C(F)(F)F)c1ccco1 | – | – | – | – | – | – | – | – | – | inhibition (Leishmania donovani [19]): > 84% |
| CSc1ccc(C(=O)C(c2ccc(Cl)c(Cl)c2)C(NC(=O)c2ccc(C)cc2)c2cc3ccccc3s2)cc1 (stereo not given) | 21 | 92.3 | 95.3 | 17.6 | 9.2 | 24.2 | 90.2 | 20.1 | 22.4 | – |
| CCOC(=O)C(C(=O)c1ccc(OC)cc1)C(NC(C)=O)c1ccc(OC)c(OC)c1 (stereo not given) | 59.2 | 96.7 | 99.1 | 58.1 | 57.1 | 35.8 | 88.5 | 30.2 | 35 | – |
| CSc1ccc(C(=O)C(c2ccc(Cl)c(Cl)c2)C(NC(C)=O)c2cccc3ccccc23)cc1 (stereo not given) | 36.4 | 89.3 | 90.1 | 31.5 | 25 | 78.6 | 87.2 | 55.8 | 74.3 | – |
| CCCCCCC1C(=O)O[C@H](C)[C@H](NC(=O)c2cccc(NC=O)c2O)C(=O)O[C@@H](C)[C@@H]1OC(=O)CC(C)C (stereo not given in full) | – | – | – | – | – | – | – | – | – | inhibition (Leishmania donovani [20]): > 93% |

Reference: ChEMBL document CHEMBL4406843, “β-Amino acid derivatives as mitochondrial complex III inhibitors of L. donovani: A promising chemotype targeting visceral leishmaniasis” (Eur J Med Chem, 2019)
